Reference: patent publication US20240059703A1 (AMGEN INC., priority 2021, published 2024)

Target: KRAS G12C (Homo sapiens (Human), UniProt P01116, C118A/G12C)
Assay: 2 h coupled exchange assay
Format: biochemical
Conditions: Avg 2 h Coupled exchange IC50, 2 h compound pre-incubation
Protocol: The term “2 h coupled exchange assay” or “20 h coupled exchange assay” as used herein refers to the assay described in the Section entitled “BIOLOGICAL EVALUATION.”

Row | IC50 [nM] | Molecule
1 | 716 | C=CC(=O)N1CC2(CCN(c3nc4cc(-c5ccnn5C)ccc4c(-c4cccc(F)c4Cl)c3C)C2)C1 [Example 16-7, 1-(6-(4-(2-chloro-3-fluorophenyl)-3-methyl-7-(1-methyl-1H-pyrazol-5-yl)-2-quinolinyl)-2,6-diazaspiro[3.4]octan-2-yl)-2-propen-1-one]
2 | 606 | C=CC(=O)N1CC2(CCN(c3nc4c(c(-c5cccc6cc[nH]c56)c3C#N)C[C@H]3C[C@@H]4C3(C)C)C2)C1 [Example 14-22, (1R,9R)-6-(1H-indol-7-yl)-10,10-dimethyl-4-(2-(2-propenoyl)-2,6-diazaspiro[3.4]octan-6-yl)-3-azatricyclo[7.1.1.0^2,7]undeca-2,4,6-triene-5-carbonitrile]
3 | 360 | C=CC(=O)N1CC2(CCN(c3nc4c(c(-c5cc(O)ccc5C)c3F)COC(C)(C)C4)C2)C1 [Example 14-53, 1-(6-(3-fluoro-4-(5-hydroxy-2-methylphenyl)-7,7-dimethyl-7,8-dihydro-5H-pyrano[4,3-b]pyridin-2-yl)-2,6-diazaspiro[3.4]octan-2-yl)-2-propen-1-one]
4 | 450 | C=CC(=O)N1CC2(CCN(c3nc4c(c(-c5cc(NS(C)(=O)=O)cc6ccccc56)c3C#N)CC(C)(C)C4)C2)C1 [Example 25-1, N-(4-(3-cyano-6,6-dimethyl-2-(2-(2-propenoyl)-2,6-diazaspiro[3.4]octan-6-yl)-6,7-dihydro-5H-cyclopenta[b]pyridin-4-yl)-2-naphthalenyl)methanesulfonamide]
5 | 164 | C=CC(=O)N1CC2(CCN(c3nc4c(c(-c5ncccc5F)c3C#N)CC[C@@H](c3scnc3C)C4)C2)C1 [Example 23-59, (7R)-4-(3-fluoro-2-pyridinyl)-7-(4-methyl-1,3-thiazol-5-yl)-2-(2-(2-propenoyl)-2,6-diazaspiro[3.4]octan-6-yl)-5,6,7,8-tetrahydro-3-quinolinecarbonitrile]
6 | 488 | C=CC(=O)N1CC2(CCN(c3nc4cc(-c5ccnn5C)ccc4c(-c4cc(O)c(F)cc4F)c3C)C2)C1 [Example 16-12, 1-(6-(4-(2,4-difluoro-5-hydroxyphenyl)-3-methyl-7-(1-methyl-1H-pyrazol-5-yl)-2-quinolinyl)-2,6-diazaspiro[3.4]octan-2-yl)-2-propen-1-one]
7 | 602 | C=CC(=O)N1CC2(CCN(c3nc4c(c(-c5c(C)ccc6cnn(C)c56)c3C)COC(C)(C)C4)C2)C1 (single isomer, unassigned) [Example 14-100, (M)-1-(6-(4-(1,6-dimethyl-1H-indazol-7-yl)-3,7,7-trimethyl-7,8-dihydro-5H-pyrano[4,3-b]pyridin-2-yl)-2,6-diazaspiro[3.4]octan-2-yl)-2-propen-1-one]
8 | 9600 | C=CC(=O)N1CC2(CCN(c3nc4c(c(-c5c(C)c(Cl)cc6cnn(C)c56)c3F)COC(C)(C)C4)C2)C1 (single isomer, unassigned) [Example 14-79, (P)-1-(6-(4-(5-chloro-1,6-dimethyl-1H-indazol-7-yl)-3-fluoro-7,7-dimethyl-7,8-dihydro-5H-pyrano[4,3-b]pyridin-2-yl)-2,6-diazaspiro[3.4]octan-2-yl)-2-propen-1-one]
9 | 1560 | C=CC(=O)N1CC2(CCN(c3nc4c(c(-c5c(C)ccc6[nH]ncc56)c3F)C[C@H]3C[C@@H]4C3(C)C)C2)C1 (single isomer, unassigned) [Example 14-74]

Same assay, conditions: Avg 2 h Coupled exchange IC50, 2 h compound pre-incubation, SOS-mediated nucleotide exchange

Row | Molecule | IC50 [nM]
10 | C=CC(=O)N1CC2(CCN(c3nc4c(c(-c5c(C)ccc6[nH]ncc56)c3Cl)COC(C)(C)C4)C2)C1 (single isomer, unassigned) [Example 2-85, (M)-1-(6-(3-chloro-7,7-dimethyl-4-(5-methyl-1H-indazol-4-yl)-7,8-dihydro-5H-pyrano[4,3-b]pyridin-2-yl)-2,6-diazaspiro[3.4]octan-2-yl)-2-propen-1-one] | 12600
11 | C=CC(=O)N1CC2(CCN(c3nc4c(c(-c5c(F)cccc5[C@H](C)O)c3C#N)C[C@H]3C[C@@H]4C3(C)C)C2)C1 (single isomer, unassigned) [Example 12-36] | 441
12 | C=CC(=O)N1CC2(CCN(c3nc4c(c(-c5c(F)ccc6cc[nH]c56)c3C#N)C[C@H]3C[C@@H]4C3(C)C)C2)C1 [Example 12-15, (1R,9R)-6-(6-fluoro-1H-indol-7-yl)-10,10-dimethyl-4-(2-(2-propenoyl)-2,6-diazaspiro[3.4]octan-6-yl)-3-azatricyclo[7.1.1.0^2,7] undeca-2,4,6-triene-5-carbonitrile] | 464
13 | C=CC(=O)N1CC2(CCN(c3nc4ccccc4c(-c4c(C)ccc5[nH]ncc45)c3C3CC3)C2)C1 [Example 6, 1-(6-(3-cyclopropyl-4-(5-methyl-1H-indazol-4-yl)quinolin-2-yl)-2,6-diazaspiro[3.4]octan-2-yl)prop-2-en-1-one] | 3500
14 | C=CC(=O)N1CC2(CCN(c3nc4c(c(-c5ccccc5Cl)c3C#N)C[C@H]3C[C@@H]4C3(C)C)C2)C1 [Example 2-63, (1R,9R)-6-(2-chlorophenyl)-10,10-dimethyl-4-(2-(2-propenoyl)-2,6-diazaspiro[3.4]octan-6-yl)-3-azatricyclo[7.1.1.0^2,7]undeca-2,4,6-triene-5-carbonitrile] | 793
15 | C=CC(=O)N1CC2(CCN(c3nc4c(c(-c5c(C)c(Cl)cc6cnn(C)c56)c3Cl)COC(C)(C)C4)C2)C1 (single isomer, unassigned) [Example 2-91, (P)-1-(6-(3-chloro-4-(5-chloro-1,6-dimethyl-1H-indazol-7-yl)-7,7-dimethyl-7,8-dihydro-5H-pyrano[4,3-b]pyridin-2-yl)-2,6-diazaspiro[3.4]octan-2-yl)-2-propen-1-one] | 2890
16 | C=CC(=O)N1CC2(CCN(c3nc4c(c(-c5cc(S(N)(=O)=O)ccc5C)c3C#N)CCC(C)(C)C4)C2)C1 [Example 2-106, 3-(3-cyano-7,7-dimethyl-2-(2-(2-propenoyl)-2,6-diazaspiro[3.4]octan-6-yl)-5,6,7,8-tetrahydro-4-quinolinyl)-4-methylbenzenesulfonamide] | 288
17 | C=CC(=O)N1CC2(CCN(c3nc4c(c(-c5c(C)ccc6cnn(C)c56)c3Cl)COC(C)(C)C4)C2)C1 (single isomer, unassigned) [Example 2-87, (M)-1-(6-(3-chloro-4-(1,6-dimethyl-1H-indazol-7-yl)-7,7-dimethyl-7,8-dihydro-5H-pyrano[4,3-b]pyridin-2-yl)-2,6-diazaspiro[3.4]octan-2-yl)-2-propen-1-one] | 115
18 | C=CC(=O)N1CC2(CCN(c3nc4c(c(-c5cccc6[nH]ccc56)c3C#N)C[C@H]3C[C@@H]4C3(C)C)C2)C1 [Example 12-42, (1R,9R)-6-(1H-indol-4-yl)-10,10-dimethyl-4-(2-(2-propenoyl)-2,6-diazaspiro[3.4]octan-6-yl)-3-azatricyclo[7.1.1.0^2,7] undeca-2,4,6-triene-5-carbonitrile] | 878
19 | C=CC(=O)N1CC2(CCN(c3nc4cc(F)ccc4c(-c4c(C)ccc5[nH]ncc45)c3C)[C@@H]2C)C1 (single isomer, unassigned) [Example 2-59] | 14900
20 | C=CC(=O)N1CC2(CCN(c3nc4c(c(-c5c(F)cccc5[C@@H](C)O)c3C#N)C[C@H]3C[C@@H]4C3(C)C)C2)C1 (single isomer, unassigned) [Example 12-37] | 1440
21 | C=CC(=O)N1CC2(CCN(c3nc4c(c(-c5cccc6snnc56)c3C#N)COC(C)(C)C4)C2)C1 [Example 12-21, 4-(1,2,3-benzothiadiazol-4-yl)-7,7-dimethyl-2-(2-(2-propenoyl)-2,6-diazaspiro[3.4]octan-6-yl)-7,8-dihydro-5H-pyrano[4,3-b]pyridine-3-carbonitrile] | 601
22 | C=CC(=O)N1CC2(CCN(c3nc4c(c(-c5cc(O)ccc5Cl)c3C)COC(C)(C)C4)C2)C1 [Example 2-35, 1-(6-(4-(2-chloro-5-hydroxyphenyl)-3,7,7-trimethyl-7,8-dihydro-5H-pyrano[4,3-b]pyridin-2-yl)-2,6-diazaspiro[3.4]octan-2-yl)-2-propen-1-one] | 186

The next lines start with the values.

Row | IC50 [nM] | Molecule
23 | 946 | C=CC(=O)N1CC2(CCN(c3nc4c(c(-c5c(O)ccc6ccccc56)c3C#N)COC(C)(C)C4)C2)C1 [Example 13-34, 4-(2-hydroxy-1-naphthalenyl)-7,7-dimethyl-2-(2-(2-propenoyl)-2,6-diazaspiro[3.4]octan-6-yl)-7,8-dihydro-5H-pyrano[4,3-b]pyridine-3-carbonitrile]
24 | 23300 | C=CC(=O)N1CC2(CCN(c3nc4c(c(-c5cc(O)cc6ccccc56)c3C#N)COC(C)(C)C4)C2)C1 (single isomer, unassigned) [Example 13-42, (M)-4-(3-hydroxy-1-naphthalenyl)-7,7-dimethyl-2-(2-(2-propenoyl)-2,6-diazaspiro[3.4]octan-6-yl)-7,8-dihydro-5H-pyrano[4,3-b]pyridine-3-carbonitrile]
25 | 35600 | C=CC(=O)N1CC2(CCN(c3nc4c(c(-c5cc(O)c(F)c6ccccc56)c3C#N)COC(C)(C)C4)C2)C1 (single isomer, unassigned) [Example 13-77, (M)-4-(4-fluoro-3-hydroxy-1-naphthalenyl)-7,7-dimethyl-2-(2-(2-propenoyl)-2,6-diazaspiro[3.4]octan-6-yl)-7,8-dihydro-5H-pyrano[4,3-b]pyridine-3-carbonitrile]
26 | 101 | C=CC(=O)N1CC2(CCN(c3nc4c(c(-c5c(C)ccc6cnn(C)c56)c3C#N)[C@H]3C[C@@H](C4)C3)C2)C1 [Example 13-131, (1S,9S)-3-(1,6-dimethyl-1H-indazol-7-yl)-5-(2-(2-propenoyl)-2,6-diazaspiro[3.4]octan-6-yl)-6-azatricyclo[7.1.1.0^2,7]undeca-2,4,6-triene-4-carbonitrile]

Same assay, conditions: read-out: Avg 2 h Coupled exchange IC50, 2 h compound pre-incubation, SOS-mediated nucleotide exchange

Row | IC50 [nM] | Molecule
27 | 427 | (P)-1-(6-(4-(5-chloro-1-methyl-1H-indazol-7-yl)-3,7,7-trimethyl-7,8-dihydro-5H-pyrano[4,3-b]pyridin-2-yl)-2,6-diazaspiro[3.4]octan-2-yl)-2-propen-1-one [Example 2-34]
